# Test results published in ChEMBL document CHEMBL3045481, “Insecticide-induced resurgence of the whitebacked planthopper Sogatella furcifera (Horvath) (Hemiptera: Delphacidae) on rice varieties with different levels of resistance” (Crop Prot, 2011).
# Calls of active or inactive are those of the source. No cut-off for these calls is given here.
# Legend:
# Oryza sativa [1] = experiment: Effect on total sugar level in Sogatella furcifera-sensitive Oryza sativa (rice) plant ARC6248 leaf blade measured per gram of dry weight at 0.100% concentration (reference value: 34.05 mg/g dry wt); type: ADME, organism-based; details: in vivo
# Oryza sativa [2] = experiment: Effect on total amino acids level in Sogatella furcifera-sensitive Oryza sativa (rice) plant ARC6248 leaf sheath measured per gram of dry weight at 0.100% concentration (reference value: 2.11 mg/g fresh wt); type: ADME, organism-based; details: in vivo
# Oryza sativa [3] = experiment: Effect on reducing sugar level in Sogatella furcifera-sensitive Oryza sativa (rice) plant ARC6248 leaf blade measured per gram of dry weight at 0.100% concentration (reference value: 8.37 mg/g dry wt); type: ADME, organism-based; details: in vivo
# Oryza sativa [4] = experiment: Effect on total protein level in Sogatella furcifera-sensitive Oryza sativa (rice) plant ARC6248 leaf sheath measured per gram of dry weight at 0.100% concentration (reference value: 6.11 mg/g […]); type: ADME, organism-based; details: in vivo
# Oryza sativa [5] = experiment: Effect on total protein level in Sogatella furcifera-sensitive Oryza sativa (rice) plant ARC6248 leaf blade measured per gram of dry weight at 0.100% concentration (reference value: 17.67 mg/g […]); type: ADME, organism-based; details: in vivo
# Sogatella furcifera [6] = experiment: Insecticidal activity against Sogatella furcifera on insect-sensitive rice plant ARC6248 assessed as resurgence ratio at 0.100% concentration; type: functional
# Sogatella furcifera [7] = experiment: Insecticidal activity against Sogatella furcifera on insect-resistanct rice plant PR116 assessed as hopper population at 0.100% concentration; type: functional, organism-based
# Oryza sativa [8] = experiment: Effect on total sugar level in Sogatella furcifera-resistanct Oryza sativa (rice) plant PR116 leaf sheath measured per gram of dry weight at 0.100% concentration (reference value: 30.27 mg/g dry wt); type: ADME, organism-based; details: in vivo
# Oryza sativa [9] = experiment: Effect on reducing sugar level in Sogatella furcifera-resistanct Oryza sativa (rice) plant PR116 leaf blade measured per gram of dry weight at 0.100% concentration (reference value: 9.35 mg/g dry wt); type: ADME, organism-based; details: in vivo
# Oryza sativa [10] = experiment: Effect on total protein level in Sogatella furcifera-resistanct Oryza sativa (rice) plant PR116 leaf blade measured per gram of dry weight at 0.100% concentration (reference value: 21.67 mg/g fresh wt); type: ADME, organism-based; details: in vivo
# Sogatella furcifera [11] = experiment: Insecticidal activity against Sogatella furcifera on insect-resistanct rice plant PR116 assessed as growth index at 0.100% concentration (reference value: 6.02%); type: functional
# Sogatella furcifera [12] = experiment: Insecticidal activity against Sogatella furcifera on insect-sensitive rice plant ARC6248 assessed as reproduction at 0.100% concentration; type: functional, organism-based
# Oryza sativa [13] = experiment: Effect on total phenols level in Sogatella furcifera-sensitive Oryza sativa (rice) plant ARC6248 leaf sheath measured per gram of dry weight at 0.100% concentration (reference value: 12.75 mg/g dry wt); type: ADME, organism-based; details: in vivo
# Oryza sativa [14] = experiment: Effect on total sugar level in Sogatella furcifera-sensitive Oryza sativa (rice) plant ARC6248 leaf sheath measured per gram of dry weight at 0.100% concentration (reference value: 25.98 mg/g dry wt); type: ADME, organism-based; details: in vivo
# Oryza sativa [15] = experiment: Effect on reducing sugar level in Sogatella furcifera-sensitive Oryza sativa (rice) plant ARC6248 leaf sheath measured per gram of dry weight at 0.100% concentration (reference value: 6.41 mg/g dry wt); type: ADME, organism-based; details: in vivo
# Sogatella furcifera [16] = experiment: Insecticidal activity against Sogatella furcifera on insect-sensitive rice plant ARC6248 assessed as nymphal survival at 0.100% concentration (reference value: 34.17%); type: functional
# Sogatella furcifera [17] = experiment: Insecticidal activity against Sogatella furcifera on insect-sensitive rice plant ARC6248 assessed as nymphal duration at 0.100% concentration (reference value: 14.48 days); type: functional
# Oryza sativa [18] = experiment: Effect on reducing sugar level in Sogatella furcifera-resistanct Oryza sativa (rice) plant PR116 leaf sheath measured per gram of dry weight at 0.100% concentration (reference value: 7.50 mg/g dry wt); type: ADME, organism-based; details: in vivo
# Oryza sativa [19] = experiment: Effect on total phenols level in Sogatella furcifera-resistanct Oryza sativa (rice) plant PR116 leaf sheath measured per gram of dry weight at 0.100% concentration (reference value: 5.75 mg/g dry wt); type: ADME, organism-based; details: in vivo
# Sogatella furcifera [20] = experiment: Insecticidal activity against Sogatella furcifera on insect-sensitive rice plant ARC6248 assessed as growth index at 0.100% concentration (reference value: 2.38%); type: functional
# Sogatella furcifera [21] = experiment: Insecticidal activity against Sogatella furcifera on insect-resistanct rice plant PR116 assessed as resurgence ratio at 0.100% concentration; type: functional
# Oryza sativa [22] = experiment: Effect on total phenols level in Sogatella furcifera-resistanct Oryza sativa (rice) plant PR116 leaf blade measured per gram of dry weight at 0.100% concentration (reference value: 8.08 mg/g dry wt); type: ADME, organism-based; details: in vivo
# Oryza sativa [23] = experiment: Effect on total phenols level in Sogatella furcifera-sensitive Oryza sativa (rice) plant ARC6248 leaf blade measured per gram of dry weight at 0.100% concentration (reference value: 17.08 mg/g dry wt); type: ADME, organism-based; details: in vivo
# Oryza sativa [24] = experiment: Effect on total amino acids level in Sogatella furcifera-resistanct Oryza sativa (rice) plant PR116 leaf blade measured per gram of dry weight at 0.100% concentration (reference value: 3.91 mg/g […]); type: ADME, organism-based; details: in vivo
# Sogatella furcifera [25] = experiment: Insecticidal activity against Sogatella furcifera on insect-resistanct rice plant PR116 assessed as nymphal survival at 0.100% concentration (reference value: 70.28%); type: functional
# Oryza sativa [26] = experiment: Effect on total protein level in Sogatella furcifera-resistanct Oryza sativa (rice) plant PR116 leaf sheath measured per gram of dry weight at 0.100% concentration (reference value: 7.06 mg/g fresh wt); type: ADME, organism-based; details: in vivo
# Oryza sativa [27] = experiment: Effect on total amino acids level in Sogatella furcifera-sensitive Oryza sativa (rice) plant ARC6248 leaf blade measured per gram of dry weight at 0.100% concentration (reference value: 3.54 mg/g fresh wt); type: ADME, organism-based; details: in vivo
# Oryza sativa [28] = experiment: Effect on total sugar level in Sogatella furcifera-resistanct Oryza sativa (rice) plant PR116 leaf blade measured per gram of dry weight at 0.100% concentration (reference value: 36.16 mg/g dry wt); type: ADME, organism-based; details: in vivo
# Oryza sativa [29] = experiment: Effect on total amino acids level in Sogatella furcifera-resistanct Oryza sativa (rice) plant PR116 leaf sheath measured per gram of dry weight at 0.100% concentration (reference value: 2.58 mg/g […]); type: ADME, organism-based; details: in vivo
# Sogatella furcifera [30] = experiment: Insecticidal activity against Sogatella furcifera on insect-resistanct rice plant PR116 assessed as nymphal duration at 0.100% concentration (reference value: 11.75 days); type: functional
SMILES,Activity (Oryza sativa [1]) [mg],Activity (Oryza sativa [2]) [mg],Activity (Oryza sativa [3]) [mg],Activity (Oryza sativa [4]) [mg],Activity (Oryza sativa [5]) [mg],Ratio (Sogatella furcifera [6]),Activity (Sogatella furcifera [7]),Activity (Oryza sativa [8]) [mg],Activity (Oryza sativa [9]) [mg],Activity (Oryza sativa [10]) [mg],growth inhibition (GI) (Sogatella furcifera [11]) [%],Activity (Sogatella furcifera [12]),Activity (Oryza sativa [13]) [mg],Activity (Oryza sativa [14]) [mg],Activity (Oryza sativa [15]) [mg],Survival (Sogatella furcifera [16]) [%],Time (Sogatella furcifera [17]) [days],Activity (Oryza sativa [18]) [mg],Activity (Oryza sativa [19]) [mg],growth inhibition (GI) (Sogatella furcifera [20]) [%],other results
CCOP(=S)(OCC)Oc1nc(Cl)c(Cl)cc1Cl [CHLORPYRIFOS],33.21,1.75,7.5,5,18.22,<1,inactive,31.34,9.13,19.44,5.94,inactive,14.08,25.98,6.31,32.5,14.63,7.72,6.08,2.25,Ratio (Sogatella furcifera [21]): <1; Activity (Oryza sativa [22]): 7.67 mg; Activity (Oryza sativa [23]): 18.75 mg; Activity (Oryza sativa [24]): 4 mg; Survival (Sogatella furcifera [25]): 69.45%; Activity (Oryza sativa [26]): 7.72 mg; Activity (Oryza sativa [27]): 3 mg; Activity (Oryza sativa [28]): 39.37 mg; Activity (Oryza sativa [29]): 2.22 mg; Time (Sogatella furcifera [30]): 11.75 days
O=S1OCC2C(CO1)C1(Cl)C(Cl)=C(Cl)C2(Cl)C1(Cl)Cl (stereo not given) [ENDOSULFAN],34.55,2.46,7.94,5,16.56,<1,inactive,28.12,8.26,18.33,5.66,inactive,17.08,30,5.98,32.22,14.5,7.17,7.83,2.24,Ratio (Sogatella furcifera [21]): <1; Activity (Oryza sativa [22]): 10 mg; Activity (Oryza sativa [23]): 21.75 mg; Activity (Oryza sativa [24]): 3.38 mg; Survival (Sogatella furcifera [25]): 67.5%; Activity (Oryza sativa [26]): 7.78 mg; Activity (Oryza sativa [27]): 3.31 mg; Activity (Oryza sativa [28]): 34.02 mg; Activity (Oryza sativa [29]): 2.4 mg; Time (Sogatella furcifera [30]): 12 days
CCOP(=S)(OCC)Oc1cnc2ccccc2n1 [QUINALPHOS],38.84,2.38,10,7.22,21.56,1.13,inactive,30.27,13.04,22.78,6.24,inactive,1308,31.87,8.8,37.5,14.46,11.31,5.67,2.61,Ratio (Sogatella furcifera [21]): 1.31; Activity (Oryza sativa [22]): 6.75 mg; Activity (Oryza sativa [23]): 17.08 mg; Activity (Oryza sativa [24]): 4.89 mg; Survival (Sogatella furcifera [25]): 72.22%; Activity (Oryza sativa [26]): 8.5 mg; Activity (Oryza sativa [27]): 3.61 mg; Activity (Oryza sativa [28]): 42.05 mg; Activity (Oryza sativa [29]): 2.93 mg; Time (Sogatella furcifera [30]): 11.65 days
